Test system: B16 melanoma cells
Experiment: Annexin V-FITC/PI apoptosis assay
Assay type: cell-based, mouse
Description: B16 cells were pre-seeded (2 × 10^5 per well of 24-well plates) in DMEM/10% FBS a day before transfection. Medium was replaced with serum-free DMEM, prior to incubation for 4 h with h-ODN, 2′-OMe, Inh (hsa-miR-21 5 p inhibitor, Ambion, USA), miR-21-miRNase, or luc-POC, each (0.1 or 1 µM) pre-complexed with Lipofectamine (Thermo Fisher Scientific, USA) in Opti-MEM medium (Thermo Fisher Scientific, USA) according to manufacturer’s instructions, then cells were cultivated in fresh culture standard medium for 24–72 h.
At 24, 48, and 72 h after transfection, cells were harvested, washed twice with PBS, resuspended in Binding Buffer to a density of 2–5 × 10^5/ml, and incubated with annexin V-FITC and propidium iodide (PI) (ab14085, Abcam, UK) in the dark at room temperature for 15 min, prior to flow cytometry analysis (Novocyte CEA Biosciences, USA).
Figure 2 Biological effect of the miR-21-specific miRNase. (A) Apoptotic profile of B16 melanoma cells after transfection with miR-21-miRNase and control luc-POC. Cytofluorimetric analysis of cells after staining with Annexin V-FITC/PI 48 h after transfection with miRNase or luc-POC (1 µM) in complex with Lipofectamine2000. Q1—population of living cells; Q2—Annexin V-FITC+/PI-, early apoptosis; Q3—Annexin V-FITC+/PI+, late apoptosis; Q4—Annexin V-FITC-/PI+, necrosis. (B) Average percentage of apoptotic (early and late apoptosis) and necrotic B16 cell population. Data represent mean ± s.e. of four independent experiments.(C, D) Invasion activity of B16 cells after incubation with Lipofectamine (LF) alone or treated with either hairpin antisense oligonucleotide (h-ODN), hairpin 2′-OMe oligonucleotide (2′-OMe), commercial miR-21 inhibitor (Inh), miR-21-miRNase, and control conjugate (luc-POC) in the concentration of 1 µM. Migration of cells was recorded in real time using the xCELLigence cell analysis system. Control—B16 cells without treatment. Data represent mean ± s.d. of four independent experiments.

In the case of “acetyl-[(LeuArg)2Gly]2-aminohexyl-AGTCTGATAAGCTACAAGTCAGCGAAAGCTGACTTG [miR-21-miRNase, peptide acetyl-[(LeuArg)2Gly]2 conjugated through aminohexyl linker to 5′-end of miR-21-targeted hairpin oligodeoxyribonucleotide]”, the “Necrosis of melanoma B16 cells (Annexin V-FITC-/PI+)” value (1 µM with Lipofectamine, 24, 48, 72 h after transfection, maximum extent, flow cytometry) is reported as “up to 7%”, the “Cells with signs of apoptosis (early and late)” value (1 µM with Lipofectamine, 48 h after transfection (maximum), mean of four independent experiments) is reported as 28% and the “Apoptotic cells relative to intact B16 cells” value (1 µM, 48 h after transfection) is reported as “six”.
